Laboratory results: patent US11059780B2, “Substituted pyrrolidine compound and use thereof” (Takeda Pharmaceutical Company Limited, priority 2017, dated 2021)

Target: T1, human orexin type 2 receptor (hOX2R) (Homo sapiens, UniProt O43614)
T1 construct: expressed in transfected cells
T1 sequence (O43614 1-444): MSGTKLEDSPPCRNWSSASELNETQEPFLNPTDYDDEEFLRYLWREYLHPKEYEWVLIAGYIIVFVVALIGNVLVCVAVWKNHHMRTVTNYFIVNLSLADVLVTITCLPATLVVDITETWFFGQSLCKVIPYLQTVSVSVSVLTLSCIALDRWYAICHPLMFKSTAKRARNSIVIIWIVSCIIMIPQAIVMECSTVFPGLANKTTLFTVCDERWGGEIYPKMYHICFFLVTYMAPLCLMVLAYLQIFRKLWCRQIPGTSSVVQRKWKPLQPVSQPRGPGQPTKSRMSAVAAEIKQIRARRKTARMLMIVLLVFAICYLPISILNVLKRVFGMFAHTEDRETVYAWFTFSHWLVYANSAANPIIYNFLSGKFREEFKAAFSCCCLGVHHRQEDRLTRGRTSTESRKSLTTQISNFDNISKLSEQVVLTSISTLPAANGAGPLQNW
Assay: Measurement of orexin type 2 receptor agonist activity (Fluo-4 calcium fluorescence, CHO cells forcibly expressing human OX2 receptor)
Format: cell-based
Details: test compound 3 μM, DMSO = 0%, orexin A (human) 10 nM = 100%
Excerpt: Experimental Example 1: Obtainment of Cell Stably Expressing Human Orexin Type 2 Receptor (hOX2R)
To obtain a cell clone stably expressing human orexin type 2 receptor, human orexin type 2 receptor cDNA was inserted into pcDNA3.1(+) plasmid vector (Invitrogen), and a plasmid DNA for expression of human orexin type 2 receptor (pcDNA3.1(+)/hOX2R) was cloned. The plasmid DNA was introduced into CHO-dhfr cell by an electroporation method, and human orexin type 2 receptor expressing clone cells were obtained by limiting dilution method by using G418 drug resistance as a selection marker.
Experimental Example 2: Measurement of Orexin Type 2 Receptor Agonist Activity
CHO cells forcibly expressing human OX2 receptor were seeded in each well of 384 well black transparent bottom plate (BD Falcon) at 7,500 cells/well, and cultured for one day in a 5% CO2 incubator at 37° C. After removal of the medium in the cell plate, assay buffer A containing a calcium indicator (HBSS (Life Technologies), 20 mM HEPES (Life Technologies), 0.1% BSA (Wako Pure Chemical Industries, Ltd.), 2.5 μg/mL Fluo-4 AM (DOJINDO Chemical), 0.08% Pluronic F127 (DOJINDO Chemical), 1.25 mM probenecid (DOJINDO Chemical)) was added at 30 μL/well. The plate was stood for 30 min in a 5% CO2 incubator at 37° C., and further stood at room temperature for 30 min. A test compound prepared by diluting with assay buffer B (HBSS, 20 mM HEPES, 0.1% BSA) was added at 10 μL/well, and the fluorescence value was measured by FDSSpCELL (Hamamatsu Photonics K.K.) every one sec for 1 min, and thereafter every two sec for 1 min 40 sec. The activity (%) of the test compound was calculated assuming that variation in the fluorescence value when DMSO was added instead of the test compound was 0% […], and variation in the fluorescence value when orexin A (human) (PEPTIDE INSTITUTE, INC.) was added at the final concentration of 10 nM was 100% […]. The activity of each compound at the concentration of 3 μM was shown below.

SMILES | OX2R agonist activity (3 μM, %) [%]
COC1CN(C(=O)c2cc(C)ccc2C)CC1Oc1cc(NS(=O)(=O)N2C[C@@H]3C[C@H]3C2)cc(C)n1 (relative stereo) [Example 117, trans-N-(2-((1-(2,5-dimethylbenzoyl)-4-methoxypyrrolidin-3-yl)oxy)-6-methylpyridin-4-yl)-3-azabicyclo[3.1.0]hexane-3-sulfonamide] | 93
CO[C@@H]1CN(C(=O)c2c(C)cccc2C2CC2)C[C@H]1Oc1cccc(NS(=O)(=O)N(C)C2CCOCC2)c1 (relative stereo) [Example 165, trans-N′-(3-((1-(2-cyclopropyl-6-methylbenzoyl)-4-methoxypyrrolidin-3-yl)oxy)phenyl)-N-methyl-N-(tetrahydro-2H-pyran-4-yl)sulfuric diamide] | 108
COc1cccc(C)c1C(=O)N1C[C@@H](OC)[C@H](Oc2cccc(CS(=O)(=O)N3CCCC3c3ccccn3)c2)C1 (relative stereo) [Example 119, trans-(2-methoxy-6-methylphenyl)(3-methoxy-4-(3-(((2-(pyridin-2-yl)pyrrolidin-1-yl)sulfonyl)methyl)phenoxy)pyrrolidin-1-yl)methanone] | 100
CCc1cccc(C)c1C(=O)N1C[C@@H](OC)[C@H](Oc2cccc(CS(=O)(=O)N(CC)C3CCOCC3)c2)C1 [Example 158, N-ethyl-1-(3-(((3R,4R)-1-(2-ethyl-6-methylbenzoyl)-4-methoxypyrrolidin-3-yl)oxy)phenyl)-N-(tetrahydro-2H-pyran-4-yl)methanesulfonamide] | 83
CCc1cccc(C)c1C(=O)N1C[C@@H](OC)[C@H](Oc2cccc(CS(=O)(=O)N(C)C3CCOC(C)(C)C3)c2)C1 (relative stereo) [Example 140, trans-N-(2,2-dimethyltetrahydro-2H-pyran-4-yl)-1-(3-((1-(2-ethyl-6-methylbenzoyl)-4-methoxypyrrolidin-3-yl)oxy)phenyl)-N-methylmethanesulfonamide] | 109
COc1cccc(C)c1C(=O)N1CC(OC)C(Oc2cccc(CS(=O)(=O)N3CCCC3c3ccc(C)nc3C)c2)C1 (stereo not drawn) [Example 124, trans-3-(3-(((2-(2,6-dimethylpyridin-3-yl)pyrrolidin-1-yl)sulfonyl)methyl)phenoxy)-4-methoxypyrrolidin-1-yl)(2-methoxy-6-methylphenyl)methanone] | 99
CO[C@@H]1CN(C(=O)c2cc(C)ccc2C)C[C@H]1Oc1cccc(NS(=O)(=O)N(C)Cc2cccnc2)c1 (relative stereo) [Example 61, trans-N′-(3-((1-(2,5-dimethylbenzoyl)-4-methoxypyrrolidin-3-yl)oxy)phenyl)-N-methyl-N-(pyridin-3-ylmethyl)sulfuric diamide] | 87
CCc1cccc(C)c1C(=O)N1CC[C@H](Oc2cccc(CS(=O)(=O)N(C)C3CCOCC3)c2)C1 [Example 159, 1-(3-(((3S)-1-(2-ethyl-6-methylbenzoyl)pyrrolidin-3-yl)oxy)phenyl)-N-methyl-N-(tetrahydro-2H-pyran-4-yl)methansulfo] | 89
CO[C@@H]1CN(C(=O)c2cc(C)ccc2C)C[C@H]1Oc1cccc(NS(=O)(=O)N2CCC(c3cccnc3)C2)c1 (relative stereo) [Example 53, trans-N-(3-((1-(2,5-dimethylbenzoyl)-4-methoxypyrrolidin-3-yl)oxy)phenyl)-3-(pyridin-3-yl)pyrrolidine-1-sulfonamide] | 99

Further lines, results first:

OX2R agonist activity (3 μM, %) [%] | SMILES
73 | CO[C@@H]1CN(C(=O)c2cc(C)ccc2C)C[C@H]1Oc1cccc(NS(=O)(=O)N(C)C2CC2)c1 (relative stereo) [Example 44, trans-N-cyclopropyl-N′-(3-((1-(2,5-dimethylbenzoyl)-4-methoxypyrrolidin-3-yl)oxy)phenyl)-N-methylsulfuric diamide]
91 | COC1CN(C(=O)c2cc(C)ccc2C)CC1Oc1cccc(NS(=O)(=O)N2C[C@@H]3C[C@H]3C2)c1 (relative stereo) [Example 73, trans-N-(3-((1-(2,5-dimethylbenzoyl)-4-methoxypyrrolidin-3-yl)oxy)phenyl)-3-azabicyclo[3.1.0]hexane-3-sulfonamide]
67 | CO[C@@H]1CN(C(=O)c2cc(C)ccc2C)C[C@H]1Oc1ccc(F)c(CS(=O)(=O)N2CCCC2c2ccccn2)c1 (relative stereo) [Example 87, trans-(2,5-dimethylphenyl)(3-(4-fluoro-3-(((2-(pyridin-2-yl)pyrrolidin-1-yl)sulfonyl)methyl)phenoxy)-4-methoxypyrrolidin-1-yl)methanone]
90 | CO[C@@H]1CN(C(=O)c2cc(C)ccc2C)C[C@H]1Oc1cccc(NS(=O)(=O)N2CCC3(COC3)C2)c1 (relative stereo) [Example 70, trans-N-(3-((1-(2,5-dimethylbenzoyl)-4-methoxypyrrolidin-3-yl)oxy)phenyl)-2-oxa-6-azaspiro[3.4]octane-6-sulfonamide]
67 | CO[C@@H]1CN(C(=O)c2cc(C)ccc2C)C[C@H]1Oc1cccc(C(F)S(=O)(=O)N2CCCC2c2ccccn2)c1 (relative stereo) [Example 110, trans-(2,5-dimethylphenyl)(3-(3-(fluoro((2-(pyridin-2-yl)pyrrolidin-1-yl)sulfonyl)methyl)phenoxy)-4-methoxypyrrolidin-1-yl)methanone]
62 | CO[C@@H]1CN(C(=O)c2cc(C)ccc2C)C[C@H]1Oc1cccc(CS(=O)(=O)N2CCOCC2CO)c1 (relative stereo) [Example 11, trans-(2,5-dimethylphenyl)(3-(3-(((3-(hydroxymethyl)morpholin-4-yl)sulfonyl)methyl)phenoxy)-4-methoxypyrrolidin-1-yl)methanone]
60 | CO[C@@H]1CN(C(=O)c2cc(C)ccc2C)C[C@H]1Oc1cccc(NS(=O)(=O)N2CCCC2C)c1 (relative stereo) [Example 23, trans-N-(3-((1-(2,5-dimethylbenzoyl)-4-methoxypyrrolidin-3-yl)oxy)phenyl)-2-methylpyrrolidine-1-sulfonamide]
96 | CO[C@@H]1CN(C(=O)c2cc(C)ccc2C)C[C@H]1Oc1cccc(CS(=O)(=O)N2CCC23CN(C(C)=O)C3)c1 (relative stereo) [Example 90, trans-1-(1-((3-((1-(2,5-dimethylbenzoyl)-4-methoxypyrrolidin-3-yl)oxy)benzyl)sulfonyl)-1,6-diazaspiro[3.3]hept-6-yl)ethanone]
75 | COc1ccccc1C1CCCN1S(=O)(=O)Cc1cccc(O[C@@H]2CN(C(=O)c3cc(C)ccc3C)C[C@H]2OC)c1 (relative stereo) [Example 83, trans-(2,5-dimethylphenyl)(3-methoxy-4-(3-(((2-(2-methoxyphenyl)pyrrolidin-1-yl)sulfonyl)methyl)phenoxy)pyrrolidin-1-yl)methanone]
68 | CO[C@@H]1CN(C(=O)c2cc(C)ccc2C)C[C@H]1Oc1cccc(NS(=O)(=O)N2CCC23CCOC3)c1 (stereo partly drawn) [Example 30, N-(3-(((3R,4R)-1-(2,5-dimethylbenzoyl)-4-methoxypyrrolidin-3-yl)oxy)phenyl)-6-oxa-1-azaspiro[3.4]octane-1-sulfonamide]
98 | CO[C@@H]1CN(C(=O)c2cc(C)ccc2C)C[C@H]1Oc1cccc(CS(=O)(=O)N2CCCC2c2ncccn2)c1 (relative stereo) [Example 38, trans-(2,5-dimethylphenyl)(3-methoxy-4-(3-(((2-(pyrimidin-2-yl)pyrrolidin-1-yl)sulfonyl)methyl)phenoxy)pyrrolidin-1-yl)methanone]
67 | CO[C@@H]1CN(C(=O)c2cc(C)ccc2C)C[C@H]1Oc1cccc(CS(=O)(=O)N2CCC23CCOC3)c1 (relative stereo) [Example 19, trans-(2,5-dimethylphenyl)(3-methoxy-4-(3-((6-oxa-1-azaspiro[3.4]oct-1-ylsulfonyl)methyl)phenoxy)pyrrolidin-1-yl)methanone]
